Here are results for 12 compounds from ChEMBL document CHEMBL1201862, “PubChem BioAssay data set” (2004).

Test in all cases: growth of human tumour cells (NCI), 48 h
In assay [1] the test system is A549.
For assay [2], the system named is K562.
The test system of assay [3] is HCT-15.
Assay [4] has as its system MDA-MB-435.
The subject of assay [5] is SN12C.
The test system of assay [6] is U-251.
The test system of assay [7] is MOLT-4.
In assay [8] the test system is M14.
Assay [9] concerns SNB-75.
In assay [10] the test system is ACHN.
The subject of assay [11] is LOX IMVI.
In assay [12] the test system is 786-0.
In assay [13] the test system is SR.
Assay [14] relates to SK-MEL-28.
Assay [15] has as its system CCRF-CEM.
The test system of assay [16] is SW-620.
Assay [17] has as its system MDA-N.
For assay [18], the system named is NCI-H522.
The subject of assay [19] is Malme-3M.

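A five-concentration, 48-hour dose response in 96-well plates underlies each endpoint, interpolated linearly between surrounding concentrations. The concentration for 50% growth inhibition is given as GI50.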 Activity calls are given as the source filed them. Rule as the data show it: active = GI50 up to about 1.1 µM and inactive = higher.

For the compound `O=C(c1ccccc1)c1ccc(N2C(=O)/C(=C/Cc3ccco3)N=C2c2ccccc2)c(N2C(=O)/C(=C/Cc3ccco3)N=C2c2ccccc2)c1`, the GI50 in assay [1] was 35.8 µM (inactive); in assay [2], 64.7 µM (inactive); in [3], 45 µM; in [4], 29.2 µM (inactive); in [5], 71.6 µM (inactive); in assay [6], 18.8 µM (inactive). The GI50 was 18.8 µM (inactive) in assay [7]; 39.9 µM (inactive) in assay [8]; 28.1 µM (inactive) in assay [9]; 33 µM (inactive) in assay [10]; 24.2 µM (inactive) in assay [11]; 45.7 µM (inactive) in assay [12]. Further, the GI50 in assay [13] was 28.6 µM (inactive); in assay [14], > 100 µM (inactive); in [15] it was 11.1 µM (inactive); in [16] it was 39.8 µM (inactive); in assay [17], 60.3 µM (inactive).

As to `Clc1ccccc1C(SCc1ccccc1)SCc1ccccc1`, the GI50 was > 100 µM (inactive) in assay [1]; > 100 µM (inactive) in [2]; 75.2 µM in assay [3]; > 100 µM (inactive) in [5]; > 100 µM (inactive) in [18]; > 100 µM (inactive) in assay [6]. In addition, the GI50 in assay [7] was > 100 µM (inactive); in assay [8] it was > 100 µM (inactive); in assay [9], 41.8 µM (inactive); in [10] it was > 100 µM (inactive); in assay [12], > 100 µM (inactive); in [19], > 100 µM (inactive). Besides, the GI50 in assay [13], in [14], in assay [15], in [16] and in [17] was > 100 µM (inactive) each time.

Take `OC1CSCCCSCCSCCCSC1`: the GI50 is > 100 µM (inactive) in assay [1]; > 100 µM (inactive) in assay [2]; greater than 100 µM in assay [3]; > 100 µM (inactive) in assay [4]; > 100 µM (inactive) in [5]; > 100 µM (inactive) in [18]. In addition, the GI50 in assay [6] was > 100 µM (inactive); in assay [7] it was 12.1 µM (inactive); in assay [8] it was > 100 µM (inactive); in assay [9], > 100 µM (inactive); in assay [10], > 100 µM (inactive); in [11], > 100 µM (inactive). Also, the GI50 in assay [12], in [14], in [16] and in assay [17] was > 100 µM (inactive) throughout.

Take `O=C(CC(=O)n1nc(-c2ccccc2)c(/N=N/c2ccc(Cl)cc2)c1-c1ccccc1)Nc1cccc(Cl)c1`: the GI50 in assay [1] was > 100 µM (inactive); in [2], 46.7 µM (inactive); in assay [3], 54.6 µM; in assay [5], 60.5 µM (inactive); in assay [6], 40.9 µM (inactive); in assay [7] it was 35.9 µM (inactive). Further, the GI50 was 70.1 µM (inactive) in assay [8]; 43.3 µM (inactive) in assay [9]; 63.8 µM (inactive) in assay [10]; 59.6 µM (inactive) in assay [12]; 42.9 µM (inactive) in assay [19]; 37.8 µM (inactive) in assay [13]. Also, the GI50 is > 100 µM (inactive) in [14], 38.9 µM (inactive) in assay [15], > 100 µM (inactive) in [16] and > 100 µM (inactive) in [17].

Consider `C[C@]12CC[C@@H]3c4cc(Br)c(O)c(Br)c4CC[C@H]3[C@@H]1CCC2=O`, for which the GI50 in [1] was 17.3 µM (inactive); in [2], 18 µM (inactive); in assay [3], 12.4 µM; in assay [4], 26.2 µM (inactive); in [5], 27.7 µM (inactive); in [6] it was 16.6 µM (inactive). Also, the GI50 in assay [7] was 20.6 µM (inactive); in assay [8] it was 39.2 µM (inactive); in assay [9] it was 16.1 µM (inactive); in assay [10], 13.5 µM (inactive); in assay [11] it was 20.4 µM (inactive); in [12], 19.7 µM (inactive). The GI50 in assay [19] is 85.9 µM (inactive); in assay [14] it was 31 µM (inactive); in assay [15] it was 24.7 µM (inactive); in assay [16], 32.9 µM (inactive); in [17], 33.1 µM (inactive).

For `O=C(c1ccc2ccccc2c1)C1(I)S(=O)(=O)OCCOS1(=O)=O`, the GI50 in assay [1] was > 100 µM (inactive); in assay [2] it was > 100 µM (inactive); in assay [3] it was greater than 100 µM; in assay [4] it was > 100 µM (inactive); in assay [5], > 100 µM (inactive); in [6], > 100 µM (inactive). The GI50 in [7], in assay [8], in [10], in assay [12], in [19] and in [13] was > 100 µM (inactive) throughout. In addition, the GI50 in [14], in assay [15] and in assay [17] was > 100 µM (inactive) throughout.

With `Nc1nc(N)c2c(n1)CCC(S(=O)(=O)c1ccc3ccccc3c1)C2` (stereo not given), the GI50 is 0.54 µM (active) in assay [1]; 2.38 µM in assay [3]; 0.714 µM (active) in assay [4]; 7 µM (inactive) in assay [5]; 2.45 µM (inactive) in assay [6]; 2 µM (inactive) in assay [7]. Besides, the GI50 in assay [8] is 12.6 µM (inactive); in assay [10], 3.85 µM (inactive); in assay [11] it was 0.706 µM (active); in assay [12] it was 23.1 µM (inactive); in [19] it was 2.24 µM (inactive); in [13], 4.08 µM (inactive). Besides, the GI50 in assay [14] is 27.7 µM (inactive); in [15], 5.2 µM (inactive); in [16], 59.3 µM (inactive); in [17], 0.766 µM (active).

Take `O=c1cc(NNc2cccc(Cl)c2)[nH]c(=O)[nH]1`: the GI50 was > 100 µM (inactive) in assay [1]; 29 µM (inactive) in assay [2]; 17.1 µM in assay [3]; 17.5 µM (inactive) in assay [18]; > 100 µM (inactive) in assay [6]; 19.8 µM (inactive) in [7]. Besides, the GI50 in assay [8] was 16.7 µM (inactive); in [9], 88.5 µM (inactive); in [10], 38.9 µM (inactive); in assay [11], 15.4 µM (inactive); in [12] it was 16.2 µM (inactive); in assay [19] it was 16.3 µM (inactive). Besides, the GI50 in assay [13] is 4.29 µM (inactive); in assay [14] it was 95.9 µM (inactive); in assay [15] it was 21.6 µM (inactive); in [16] it was 18.1 µM (inactive); in assay [17], 73.8 µM (inactive).

Turning to `O=C1c2ccccc2-c2ccc(/N=N/c3c(O)ccc4ccccc34)cc21`, the GI50 is > 100 µM (inactive) in assay [1]; > 100 µM (inactive) in [2]; greater than 100 µM in assay [3]; 33.6 µM (inactive) in [4]; > 100 µM (inactive) in assay [5]; > 100 µM (inactive) in assay [18]. Moreover, the GI50 in [6] was > 100 µM (inactive); in assay [7], 41.8 µM (inactive); in assay [8], > 100 µM (inactive); in assay [9], > 100 µM (inactive); in assay [11], > 100 µM (inactive); in assay [12], > 100 µM (inactive). The GI50 in [19] is 19.7 µM (inactive); in [14], > 100 µM (inactive); in assay [15] it was 15.4 µM (inactive); in [16], > 100 µM (inactive); in [17] it was > 100 µM (inactive).

As for `Cc1c(C2CCSc3ccccc3N2)sc2ccccc12` (stereo not given), the GI50 in assay [1] was 99.8 µM (inactive); in [2], 51.5 µM (inactive); in assay [3], 74.5 µM; in assay [4], 35.2 µM (inactive); in assay [5] it was > 100 µM (inactive); in assay [18], 47 µM (inactive). The GI50 in assay [6] was > 100 µM (inactive); in [7], 77.3 µM (inactive); in [8], > 100 µM (inactive); in [9], 98.2 µM (inactive); in [10], > 100 µM (inactive); in assay [11], > 100 µM (inactive). Moreover, the GI50 in assay [12] is > 100 µM (inactive); in assay [19], 64.3 µM (inactive); in [14] it was > 100 µM (inactive); in [16], > 100 µM (inactive); in assay [17], 39.8 µM (inactive).

For `Cc1cn(CCCCCOC(=O)NC(CCCNC(=N)N)C(=O)O)c(=O)[nH]c1=O` (stereo not given), the GI50 in [1] was 49.2 µM (inactive); in [2] it was 16.1 µM (inactive); in assay [3], 28.1 µM; in assay [4] it was 6.32 µM (inactive); in [5], 56.8 µM (inactive); in assay [6], 50.2 µM (inactive). The GI50 in assay [7] was 35.6 µM (inactive); in assay [8], 55.6 µM (inactive); in [9] it was 31.6 µM (inactive); in assay [10], 72.3 µM (inactive); in assay [11] it was 53.6 µM (inactive); in [12], 39.4 µM (inactive). The GI50 in assay [13] is 2.57 µM (inactive); in [14], 76.4 µM (inactive); in [15] it was 37.2 µM (inactive); in [16], 38.7 µM (inactive); in [17], 6.9 µM (inactive).

As for `O=C(c1ccc2ccccc2c1)N(Cc1cccnc1)C(=S)N(Cc1cccnc1)C(=O)c1ccc2ccccc2c1`, the GI50 was 39.3 µM (inactive) in [1]; 41.6 µM (inactive) in assay [2]; 32.1 µM in assay [3]; 34 µM (inactive) in assay [4]; 64 µM (inactive) in assay [5]; 37.4 µM (inactive) in assay [18]. Further, the GI50 in assay [6] was 19 µM (inactive); in assay [7] it was 41.3 µM (inactive); in [8], 20.8 µM (inactive); in assay [9] it was 24.9 µM (inactive); in assay [10] it was 32.1 µM (inactive); in assay [11], 19 µM (inactive). Also, the GI50 in [12] was 25.2 µM (inactive); in assay [19], > 100 µM (inactive); in assay [13], 45.2 µM (inactive); in assay [14], 36.9 µM (inactive); in assay [15], 60.7 µM (inactive); in assay [16] it was 49.5 µM (inactive).
